Measurements taken from patent US9505750B2, “5-aminocyclylmethyl-oxazolidin-2-one derivatives” (priority 2007, dated 2016).
In brackets after ≈: the same amount, converted by molar mass.

Tested on: M. catarrhalis A894
Assay: MIC determination by microdilution in cation-adjusted Mueller-Hinton Broth (NCCLS)
Type: cell-based
Conditions: Moraxella catarrhalis, pH 7.2-7.3
Description: These assays have been performed following the description given in “Methods for dilution Antimicrobial Susceptibility Tests for Bacteria that Grow Aerobically, 4th ed.; Approved standard: NCCLS Document M7-A4; National Committee for Clinical Laboratory Standards: Villanova, Pa., USA, 1997”. Minimal inhibitory concentrations (MICs; mg/l) were determined in cation-adjusted Mueller-Hinton Broth (BBL) by a microdilution method following NCCLS guidelines (National Committee for Clinical Laboratory Standards. Methods for Dilution Antimicrobial Susceptibility). The pH of the test medium was 7.2-7.3. All Example compounds were tested against several Gram-positive and Gram-negative bacteria.

Structure (SMILES)	MIC [µg/mL]
COc1ccc2ncc(F)c(CNC3CN(C[C@@H]4CN(c5ccc6c(c5)NC(=O)CO6)C(=O)O4)C3)c2n1 [Example 26, 6-((R)-5-{3-[(3-fluoro-6-methoxy-[1,5]naphthyridin-4-ylmethyl)-amino]-azetidin-1-ylmethyl}-2-oxo-oxazolidin-3-yl)-4H-benzo[1,4]oxazin-3-one]	≤ 0.031
COc1ccc2ncnc(O[C@@H]3CN(C[C@@H]4CN(c5ccc6c(c5)NC(=O)CS6)C(=O)O4)C[C@H]3NC(C)=O)c2c1 (relative stereo) [Example 32, N-{(3R*,4R*)-4-(6-methoxy-quinazolin-4-yloxy)-1-[(R)-2-oxo-3-(3-oxo-3,4-dihydro-2H-benzo[1,4]thiazin-6-yl)-oxazolidin-5-ylmethyl]-pyrrolidin-3-yl}-acetamide]	0.25 (≈ 0.443 µM)
COc1cnc2cccc(C=C3CCN(C[C@@H]4CN(c5ccc6c(c5)NC(=O)CS6)C(=O)O4)CC3)c2n1 [Example 12, 6-{(R)-5-[4-(3-methoxy-quinoxalin-5-ylmethylene)-piperidin-1-ylmethyl]-2-oxo-oxazolidin-3-yl}-4H-benzo[1,4]thiazin-3-one]	≤ 0.031
COc1ccc2ncc(F)c(NC3CN(C[C@@H]4CN(c5ccc6c(c5)NC(=O)CO6)C(=O)O4)C3)c2n1 [Example 23, 6-{(R)-5-[3-(3-fluoro-6-methoxy-[1,5]naphthyridin-4-ylamino)-azetidin-1-ylmethyl]-2-oxo-oxazolidin-3-yl}-4H-benzo[1,4]oxazin-3-one]	≤ 0.031
COc1ccc2nccc(NC3CN(C[C@@H]4CN(c5ccc6c(c5)NC(=O)CO6)C(=O)O4)C3)c2c1 [Example 25, 6-{(R)-5-[3-(6-methoxy-quinolin-4-ylamino)-azetidin-1-ylmethyl]-2-oxo-oxazolidin-3-yl}-4H-benzo[1,4]oxazin-3-one]	≤ 0.031
COc1ccc2ncnc(OCC3CN(C[C@@H]4CN(c5ccc6c(c5)OCCO6)C(=O)O4)C3)c2c1 [Example 30, (R)-3-(2,3-dihydro-benzo[1,4]dioxin-6-yl)-5-[3-(6-methoxy-quinazolin-4-yloxymethyl)-azetidin-1-ylmethyl]-oxazolidin-2-one]	0.063 (≈ 0.132 µM)
COc1ccc2ncnc(O[C@H]3C[C@@H](CO)N(C[C@@H]4CN(c5ccc6c(c5)NC(=O)CS6)C(=O)O4)C3)c2c1 [Example 5, 6-{(R)-5-[(2S,4S)-2-hydroxymethyl-4-(6-methoxy-quinazolin-4-yloxy)-pyrrolidin-1-ylmethyl]-2-oxo-oxazolidin-3-yl}-4H-benzo[1,4]thiazin-3-one]	≤ 0.031
COc1ccc2nccc(/C=C/C3CCN(C[C@@H]4CN(c5ccc6c(c5)NC(=O)CS6)C(=O)O4)C3)c2n1 (mixture of isomers) [Example 9, 6-((R)-5-{(RS)-3-[(E)-2-(6-methoxy-[1,5]naphthyridin-4-yl)-vinyl]-pyrrolidin-1-ylmethyl}-2-oxo-oxazolidin-3-yl)-4H-benzo[1,4]thiazin-3-one]	≤ 0.031
COc1ccc2ncnc(OC3CCN(C[C@@H]4CN(c5ccc6c(c5)NC(=O)CS6)C(=O)O4)CC3)c2c1 [Example 20, 6-{(R)-5-[4-(6-methoxy-quinazolin-4-yloxy)-piperidin-1-ylmethyl]-2-oxo-oxazolidin-3-yl}-4H-benzo[1,4]thiazin-3-one]	≤ 0.031
COc1ccc2ncnc(OC3CCN(C[C@@H]4CN(c5ccc6c(c5)NC(=O)CO6)C(=O)O4)CC3)c2c1 [Example 31, 6-{(R)-5-[4-(6-methoxy-quinazolin-4-yloxy)-piperidin-1-ylmethyl]-2-oxo-oxazolidin-3-yl}-4H-benzo[1,4]oxazin-3-one]	≤ 0.031
COc1cnc2cccc(CNC3CN(C[C@@H]4CN(c5ccc6c(c5)NC(=O)CO6)C(=O)O4)C3)c2n1 [Example 34, 6-((R)-5-{3-[(3-methoxy-quinoxalin-5-ylmethyl)-amino]-azetidin-1-ylmethyl}-2-oxo-oxazolidin-3-yl)-4H-benzo[1,4]oxazin-3-one]	0.063 (≈ 0.128 µM)
COc1ccc2nccc(NC(=O)C3CCN(C[C@@H]4CN(c5ccc6c(c5)NC(=O)CS6)C(=O)O4)C3)c2n1 (mixture of isomers) [Example 8, (RS)-1-[(R)-2-oxo-3-(3-oxo-3,4-dihydro-2H-benzo[1,4]thiazin-6-yl)-oxazolidin-5-ylmethyl]-pyrrolidine-3-carboxylic acid (6-methoxy-[1,5]naphthyridin-4-yl)-amide]	≤ 0.031
COc1ccc2nccc(CNC3CN(C[C@@H]4CN(c5ccc6c(c5)NC(=O)CO6)C(=O)O4)C3)c2n1 [Example 27, 6-((R)-5-{3-[(6-methoxy-[1,5]naphthyridin-4-ylmethyl)-amino]-azetidin-1-ylmethyl}-2-oxo-oxazolidin-3-yl)-4H-benzo[1,4]oxazin-3-one]	≤ 0.031
COc1ccc2ncnc(O[C@H]3C[C@@H](CN)N(C[C@@H]4CN(c5ccc6c(c5)NC(=O)CS6)C(=O)O4)C3)c2c1 [Example 15, 6-{(R)-5-[(2S,4S)-2-aminomethyl-4-(6-methoxy-quinazolin-4-yloxy)-pyrrolidin-1-ylmethyl]-2-oxo-oxazolidin-3-yl}-4H-benzo[1,4]thiazin-3-one]	≤ 0.031
N#Cc1ccc2nccc(NC3CN(C[C@@H]4CN(c5ccc6c(c5)NC(=O)CS6)C(=O)O4)C3)c2c1 [Example 38, 4-{1-[(R)-2-oxo-3-(3-oxo-3,4-dihydro-2H-benzo[1,4]thiazin-6-yl)-oxazolidin-5-ylmethyl]-azetidin-3-ylamino}-quinoline-6-carbonitrile]	0.125 (≈ 0.257 µM)
COc1ccc2ncnc(O[C@H]3C[C@@H](CNC(C)=O)N(C[C@@H]4CN(c5ccc6c(c5)NC(=O)CS6)C(=O)O4)C3)c2c1 [Example 17, N-{(2S,4S)-4-(6-methoxy-quinazolin-4-yloxy)-1-[(R)-2-oxo-3-(3-oxo-3,4-dihydro-2H-benzo[1,4]thiazin-6-yl)-oxazolidin-5-ylmethyl]-pyrrolidin-2-ylmethyl}-acetamide]	0.25 (≈ 0.432 µM)
COc1ccc2nccc(NC3CN(C[C@@H]4CN(c5ccc6c(c5)NC(=O)CS6)C(=O)O4)C3)c2c1 [Example 37, 6-{(R)-5-[3-(6-methoxy-quinolin-4-ylamino)-azetidin-1-ylmethyl]-2-oxo-oxazolidin-3-yl}-4H-benzo[1,4]thiazin-3-one]	0.125 (≈ 0.254 µM)
COc1ccc2nccc(NC3CN(C[C@@H]4CN(c5ccc6c(c5)OCCO6)C(=O)O4)C3)c2n1 [Example 42, (R)-3-(2,3-dihydro-benzo[1,4]dioxin-6-yl)-5-[3-(6-methoxy-[1,5]naphthyridin-4-ylamino)-azetidin-1-ylmethyl]-oxazolidin-2-one]	≤ 0.031
COc1ccc2ncnc(O[C@H]3C[C@@H](Cn4ccnn4)N(C[C@@H]4CN(c5ccc6c(c5)NC(=O)CS6)C(=O)O4)C3)c2c1 [Example 19, 6-{(R)-5-[(2S,4S)-4-(6-methoxy-quinazolin-4-yloxy)-2-[1,2,3]triazol-1-ylmethyl-pyrrolidin-1-ylmethyl]-2-oxo-oxazolidin-3-yl}-4H-benzo[1,4]thiazin-3-one]	0.063 (≈ 0.107 µM)
COc1ccc2ncnc(O[C@@H]3CN(C[C@@H]4CN(c5ccc6c(c5)NC(=O)CS6)C(=O)O4)C[C@H]3O)c2c1 (relative stereo) [Example 22, 6-{(R)-5-[(3R*,4R*)-3-hydroxy-4-(6-methoxy-quinazolin-4-yloxy)-pyrrolidin-1-ylmethyl]-2-oxo-oxazolidin-3-yl}-4H-benzo[1,4]thiazin-3-one]	≤ 0.031
COc1ccc2nccc(NC3CN(C[C@@H]4CN(c5ccc6c(c5)NC(=O)CS6)C(=O)O4)C3)c2n1 [Example 36, 6-{(R)-5-[3-(6-methoxy-[1,5]naphthyridin-4-ylamino)-azetidin-1-ylmethyl]-2-oxo-oxazolidin-3-yl}-4H-benzo[1,4]thiazin-3-one]	≤ 0.031
COc1ccc2nccc(NC3CCN(C[C@@H]4CN(c5ccc6c(c5)NC(=O)CO6)C(=O)O4)CC3)c2n1 [Example 35, 6-{(R)-5-[4-(6-methoxy-[1,5]naphthyridin-4-ylamino)-piperidin-1-ylmethyl]-2-oxo-oxazolidin-3-yl}-4H-benzo[1,4]oxazin-3-one]	≤ 0.031
COc1ccc2nccc(OC3CN(C[C@@H]4CN(c5ccc6c(c5)OCCO6)C(=O)O4)C3)c2c1 [Example 44, (R)-3-(2,3-dihydro-benzo[1,4]dioxin-6-yl)-5-[3-(6-methoxy-quinolin-4-yloxy)-azetidin-1-ylmethyl]-oxazolidin-2-one]	8 (≈ 17.3 µM)
COc1ccc2nccc(NC(=O)C3CN(C[C@@H]4CN(c5ccc6c(c5)NC(=O)CS6)C(=O)O4)C3)c2n1 [Example 7, 1-[(R)-2-oxo-3-(3-oxo-3,4-dihydro-2H-benzo[1,4]thiazin-6-yl)-oxazolidin-5-ylmethyl]-azetidine-3-carboxylic acid (6-methoxy-[1,5]naphthyridin-4-yl)-amide]	≤ 0.031
COc1ccc2nccc(CCC3CCN(C[C@@H]4CN(c5ccc6c(c5)NC(=O)CS6)C(=O)O4)C3)c2n1 (mixture of isomers) [Example 10, 6-((R)-5-{(RS)-3-[2-(6-methoxy-[1,5]naphthyridin-4-yl)-ethyl]-pyrrolidin-1-ylmethyl}-2-oxo-oxazolidin-3-yl)-4H-benzo[1,4]thiazin-3-one]	≤ 0.031
COc1ccc2ncnc(O[C@H]3CCN(C[C@@H]4CN(c5ccc6c(c5)NC(=O)CS6)C(=O)O4)C3)c2c1 [Example 3, 6-{(R)-5-[(S)-3-(6-methoxy-quinazolin-4-yloxy)-pyrrolidin-1-ylmethyl]-2-oxo-oxazolidin-3-yl}-4H-benzo[1,4]thiazin-3-one]	≤ 0.031
COc1ccc2ncnc(O[C@@H]3CN(C[C@@H]4CN(c5ccc6c(c5)NC(=O)CS6)C(=O)O4)C[C@H]3n3ccnn3)c2c1 (relative stereo) [Example 16, 6-{(R)-5-[(3R*,4R*)-3-(6-methoxy-quinazolin-4-yloxy)-4-[1,2,3]triazol-1-yl-pyrrolidin-1-ylmethyl]-2-oxo-oxazolidin-3-yl}-4H-benzo[1,4]thiazin-3-one]	≤ 0.031
